In patent US6284785A, “1-arenesulfonyl-2-aryl-pyrrolidine and pyridine derivatives” (Hoffmann- La Roche Inc., priority 1999, dated 2001):

Biological target: T1, rat mGlu 1a receptor (Rattus norvegicus, UniProt P23385)
T1 construct: expressed in transfected cells; host or cells: EBNA cells (transient transfection)
Assay: [Ca2+]i measurements (FLIPR, Fluo-3 AM) on mGlu 1a transfected EBNA cells; agonist or antagonist (against 10 μM glutamate)
Type: cell-based
Conditions: for Remarks (agonist / antagonist): table of substituents of the Examples, column Remarks
Description: cDNA encoding rat mGlu 1a receptor obtained from Prof. Nakanishi (Kyoto, Japan) was transiently tranfected into EBNA cells using a procedure described by Schlaeger et. al, New Dev. New Appl. Anim Cell Techn., Proc. ESACT Meet., 15th (1998), 105-112 and 117-120. [Ca^2+ ]i measurements were performed on mGlu 1a transfected EBNA cells after incubation of the cells with Fluo-3 AM (0.5 μM final concentration) for 1hour at 37° C. followed by 4 washes with assay buffer (DMEM supplemented with Hank's salt and 20 mM HEPES. [Ca^2+ ]i measurements were done using a fluorometric imaging plate reader (FLIPR, Molecular Devices Corporation, La Jolla, Calif. USA). When compounds were evaluated as antagonists they were tested against 10 μM glutamate as agonist.
The inhibition (antagonists) or activation (agonists) curves were fitted with a four parameter logistic equation giving EC50, IC50, and Hill coefficient using the iterative non linear curve fitting software Origin (Microcal Software Inc., Northampton, Mass., USA).

T1 sequence (P23385 19-1199): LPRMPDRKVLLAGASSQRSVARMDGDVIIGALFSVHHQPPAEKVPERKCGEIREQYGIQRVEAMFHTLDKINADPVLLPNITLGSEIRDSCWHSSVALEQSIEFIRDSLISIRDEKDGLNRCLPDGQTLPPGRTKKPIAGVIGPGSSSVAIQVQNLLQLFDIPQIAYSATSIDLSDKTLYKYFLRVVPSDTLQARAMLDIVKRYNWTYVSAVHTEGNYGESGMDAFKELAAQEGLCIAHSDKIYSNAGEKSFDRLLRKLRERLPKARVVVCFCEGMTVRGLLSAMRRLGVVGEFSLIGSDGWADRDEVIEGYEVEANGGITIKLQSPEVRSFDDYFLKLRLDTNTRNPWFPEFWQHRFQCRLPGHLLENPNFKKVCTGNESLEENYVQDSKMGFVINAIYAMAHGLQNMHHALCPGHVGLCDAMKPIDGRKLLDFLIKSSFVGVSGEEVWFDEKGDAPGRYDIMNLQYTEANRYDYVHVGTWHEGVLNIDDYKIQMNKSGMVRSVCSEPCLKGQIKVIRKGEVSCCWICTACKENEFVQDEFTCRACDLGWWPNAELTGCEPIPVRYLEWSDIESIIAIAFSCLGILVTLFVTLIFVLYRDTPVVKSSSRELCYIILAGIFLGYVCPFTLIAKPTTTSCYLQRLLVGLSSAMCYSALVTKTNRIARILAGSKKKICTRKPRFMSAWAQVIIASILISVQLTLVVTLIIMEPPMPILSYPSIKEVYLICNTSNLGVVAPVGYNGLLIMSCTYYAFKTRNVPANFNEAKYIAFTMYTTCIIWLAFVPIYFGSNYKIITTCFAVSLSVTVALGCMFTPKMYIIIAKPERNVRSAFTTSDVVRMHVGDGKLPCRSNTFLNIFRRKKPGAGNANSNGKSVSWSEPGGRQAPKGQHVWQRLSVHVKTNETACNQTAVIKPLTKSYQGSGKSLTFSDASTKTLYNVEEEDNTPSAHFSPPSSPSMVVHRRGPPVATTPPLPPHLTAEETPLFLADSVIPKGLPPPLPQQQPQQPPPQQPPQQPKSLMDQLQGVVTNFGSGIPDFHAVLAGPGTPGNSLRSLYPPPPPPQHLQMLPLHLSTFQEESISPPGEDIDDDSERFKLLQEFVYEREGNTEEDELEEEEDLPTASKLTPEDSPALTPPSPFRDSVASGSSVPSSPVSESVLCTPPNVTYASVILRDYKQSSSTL

Structure (SMILES) | agonistic / antagonistic activity to the mGlu receptor | Remarks (agonist / antagonist)
CN(C)c1ccc(C2CCCN2S(=O)(=O)c2ccc(Cl)cc2)cc1F (racemic) [Example 40, (RS)-1-(4-Chloro-benzenesulfonyl)-2-(4-dimethylamino-3-fluoro-phenyl)-pyrrolidine] | agonistic activty | Agonist
Cc1ccc(S(=O)(=O)N2CCCC2c2ccc(N(C)C)c(F)c2)cc1 (racemic) [Example 41, (RS)-1-(p-Toluenesulfonyl)-2-(4-dimethylamino-3-fluoro-phenyl)-pyrrolidine] |  | Antagonist
Cc1ccc(S(=O)(=O)N2CCCC2c2ccc(F)c(Cl)c2)cc1 (racemic) [Example 42, (RS)-2-(3-Chloro-4-fluoro-phenyl)-1-(toluene-4-sulfonyl)-pyrrolidine] |  | Agonist
O=S(=O)(c1ccc(Cl)cc1)N1CCCC1c1ccc(F)c(Cl)c1 (racemic) [Example 43, (RS)-1-(4-Chloro-benzenesulfonyl)-2-(3-chloro-4-fluoro-phenyl)-pyrrolidine] |  | Antagonist
O=S(=O)(c1ccc(F)cc1)N1CCCC1c1ccc(F)c(Cl)c1 (racemic) [Example 44, (RS)-2-(3-Chloro-4-fluoro-phenyl)-1-(4-fluoro-benzenesulfonyl)-pyrrolidine] |  | Antagonist
CN(C)c1ccc(C2CCCN2S(=O)(=O)c2ccc(Cl)cc2)cc1Cl (racemic) [Example 45, (RS)-1-(4-Chloro-benzenesulfonyl)-2-(4-dimethylamino-3-chloro-phenyl)-pyrrolidine] |  | Antagonist
CN(C)c1ccc(C2CCCN2S(=O)(=O)c2ccc(F)cc2)cc1Cl (racemic) [Example 46, (RS)-1-(4-fluoro-benzenesulfonyl)-2-(4-diimethylamino-3-chloro-phenyl)-pyrrolidine] |  | Antagonist
Cc1ccc(S(=O)(=O)N2CCCC2c2ccc(Cl)c(Cl)c2)cc1 (racemic) [Example 47, (RS)-2-(3,4-Dichloro-phenyl)-1-(toluene-4-sufonyl)-pyrrolidine] |  | Antagonist
Cc1ccc(S(=O)(=O)N2CCCC2c2ccc(C(F)(F)F)cc2)cc1 (racemic) [Example 48, (RS)-1-(Toluene-4-sulfonyl)-2-(4-trifluoromethyl-phenyl)-pyrrolidine] | agonistic activty | Agonist
O=S(=O)(c1ccc(F)cc1)N1CCCC1c1ccc(C(F)(F)F)cc1 (racemic) [Example 50, (RS)-1-(4-Floro-benzenesulfonyl)-2-(4-trifluoromethyl-phenyl)-pyrrolidine] |  | Antagonist
Cc1ccc(S(=O)(=O)N2CCCC2c2ccccc2Cl)cc1 (racemic) [Example 51, (RS)-2-(2-Chloro-phenyl)-1-(toluene-4-sulfonyl)-pyrrolidine] |  | Antagonist
Cc1ccc(S(=O)(=O)N2CCCC2c2ccsc2)cc1 (racemic) [Example 55, (RS)-2-Thien-3-yl-1-(toluene-4-sulfonyl)-pyrrolidine] | agonistic activty | Agonist
O=S(=O)(c1ccc(Cl)cc1)N1CCCC1c1ccsc1 (racemic) [Example 56, (RS)-1-(4-Chloro-benzenesulfonyl)-2-thien-3-yl-pyrrolidine] | agonistic activty | Agonist
Cc1ccc(S(=O)(=O)N2CCCC2c2ccc(Cl)c(C)c2)cc1 (racemic) [Example 58, (RS)-2-(4-Chloro-3-methyl-phenyl)-1-(toluene-4-sulfonyl)-pyrrolidine] | agonistic activty | Agonist
CCCc1ccc(S(=O)(=O)N2CCCC2c2ccc(F)cc2)cc1 (racemic) [Example 59, (RS)-2-(4-Fluoro-phenyl)-1-(4-propyl-benzenesulfonyl)-pyrrolidine] |  | Antagonist
O=S(=O)(c1ccc(C(F)(F)F)cc1)N1CCCC1c1ccc(F)cc1 (racemic) [Example 60, (RS)-2-(4-Fluoro-phenyl)-1-(4-trifluoromethyl-benzenesulfonyl)-pyrrolidine] | agonistic activty | Agonist
Cc1cc(C)c(S(=O)(=O)N2CCCC2c2ccc(F)cc2)c(C)c1 (racemic) [Example 61, (RS)-2-(4-Fluoro-phenyl)-1-(2,4,6-trimethyl-benzenesulfonyl)-pyrrolidine] |  | Antagonist
Cc1ccc(S(=O)(=O)N2CCCC2c2ccc(F)cc2)cc1Cl (racemic) [Example 62, (RS)-1-(3-Chloro-4-methyl-benzenesulfonyl)-2-(4-fluoro-phenyl)-pyrrolidine] |  | Antagonist
O=S(=O)(c1ccccc1F)N1CCCC1c1ccc(F)cc1 (racemic) [Example 63, (RS)-1-(2-Fluoro-benzenesulfonyl)-2-(4-fluoro-phenyl)-pyrrolidine] |  | Antagonist
O=S(=O)(c1cccc(F)c1)N1CCCC1c1ccc(F)cc1 (racemic) [Example 64, (RS)-1-(3-Fluoro-benzenesulfonyl)-2-(4-fluoro-phenyl)-pyrrolidine] |  | Antagonist
N#Cc1ccccc1S(=O)(=O)N1CCCC1c1ccc(F)cc1 (racemic) [Example 65, (RS)-1-(2-Cyano-benzenesulfonyl)-2-(4-fluoro-phenyl)-pyrrolidine] |  | Antagonist
Cc1ccc(S(=O)(=O)N2CCCC2c2cccnc2)cc1 (racemic) [Example 83, (RS)-3-[1-(Toluene-4-sulfonyl)-pyrrolidin-2-yl]-pyridine] | agonistic activty | Agonist

Next, values leading:

agonistic / antagonistic activity to the mGlu receptor | Remarks (agonist / antagonist) | Structure (SMILES)
 | Antagonist | O=S(=O)(c1ccc2ccccc2c1)N1CCCC1c1ccc(F)cc1 (racemic) [Example 66, (RS)-2-(4-Fluoro-phenyl)-1-(naphthalene-2-sulfonyl)-pyrrolidine]
 | Antagonist | Cc1ccc(S(=O)(=O)N2CCCC2c2ccc(C)cc2C)cc1 (racemic) [Example 67, (RS)-2-(2,4-Dimethyl-phenyl)-1-(toluene-4-sulfonyl)-pyrrolidine]
 | Antagonist | Cc1ccc(C2CCCN2S(=O)(=O)c2ccc(F)cc2)c(C)c1 (racemic) [Example 68, (RS)-2-(2,4-Dimethyl-phenyl)-1-(4-fluoro-benzenesulfonyl)-pyrrolidine]
agonistic activty | Agonist | Cc1ccc(S(=O)(=O)N2CCCC2c2ccco2)cc1 (racemic) [Example 69, (RS)-2-Furan-2-yl-1-(toluene-4-sulfonyl)-pyrrolidine]
 | Antagonist | O=S(=O)(c1ccc(F)cc1)N1CCCC1c1ccco1 (racemic) [Example 70, (RS)-1-(4-Fluoro-benzenesulfonyl)-2-furan-2-yl-pyrrolidine]
 | Antagonist | O=S(=O)(c1ccc(Cl)cc1)N1CCCC1c1ccco1 (racemic) [Example 71, (RS)-1-(4-Chloro-benzenesulfonyl)-2-furan-2-yl-pyrrolidine]
agonistic activty | Agonist | Cc1ccc(S(=O)(=O)N2CCCC2c2ccc(N(C)C)cc2)cc1 (racemic) [Example 72, (RS)-2-(4-N,N-Dimethylamino-phenyl)-1-(toluene-4-sulfonyl)-pyrrolidine]
 | Antagonist | CN(C)c1ccc(C2CCCN2S(=O)(=O)c2ccc(F)cc2)cc1 (racemic) [Example 73, (RS)-2-(4-N,N-Dimethylamino-phenyl)-1-(4-fluoro-benzenesulfonyl)-pyrrolidine]
 | Antagonist | O=S(=O)(c1ccccc1)N1CCCC1c1ccc(C(F)(F)F)cc1 (racemic) [Example 75, (RS)-1-Benzenesulfonyl-2-(4-trifluoromethyl-phenyl)-pyrrolidine]
agonistic activty | Agonist | CCc1ccc(C2CCCN2S(=O)(=O)c2ccc(C)cc2)cc1 (racemic) [Example 78, (RS)-2-(4-Ethyl-phenyl)-1-(toluene-4-sulfonyl)-pyrrolidine]
 | Antagonist | CCc1ccc(C2CCCN2S(=O)(=O)c2ccc(Cl)cc2)cc1 (racemic) [Example 79, (RS)-2-(4-Ethyl-phenyl)-1-(4-chloro-benzenesulfonyl)-pyrrolidine]
 | Antagonist | CCc1ccc(C2CCCN2S(=O)(=O)c2ccc(F)cc2)cc1 (racemic) [Example 80, (RS)-2-(4-Ethyl-phenyl)-1-(4-fluoro-benzenesulfonyl)-pyrrolidine]
agonistic activty | Agonist | O=S(=O)(c1ccc(CO)cc1)N1CCCC1c1ccc(F)cc1 (racemic) [Example 84, (RS)-2-(4-Fluoro-phenyl)-1-(4-hydroxymethyl-benzenesulfonyl)-pyrrolidine]
agonistic activty | Agonist | COCc1ccc(S(=O)(=O)N2CCCC2c2ccc(F)cc2)cc1 (racemic) [Example 85, (RS)-2-(4-Fluoro-phenyl)-1-(4-methoxymethyl-benzenesulfonyl)-pyrrolidine]
